This is an account of results in patent publication US11478489B2, “Selective accretion of cytoprotectant in radiation-sensitive tissues and uses thereof” (WILLIAM MARSH RICE UNIVERSITY, priority 2017, dated 2022).

Where two headings read alike, the source gives them in different places. Bounds are passed on as bounds.

The subject of data set [1] is duodenal and jejunal crypts. The data set is described as follows: Microcolony assay (Withers-Elkind), surviving crypts after 12 Gy whole body irradiation. Type of data set: in vivo, C3Hf/KamLaw mice. To be noted: jejunum, oral, 30 min prior to 12 Gy WBI; no further benefit at 1000 mg/kg. Here is the method: (§1) WR-2721 Trihydrate (Toronto Research Chemicals Inc; North York, Ontario, Canada) was diluted in PBS (with 0.2 conversion factor to adjust for trihydrate) and was administered by IP injection at 25 or 250 or 500 mg/kg or by oral gavage at doses […] 150 to 1000 mg/kg in a volume of 0.1 ml.
For the microcolony assay, a single dose of 12 Gy whole body irradiation (WBI) was administered 15 min or 30 min after WR-2721 treatment using a Pantak 300 x-ray unit (Pantak; East Haven, Conn.), with 300 kVp X-rays at a dose rate of 1.84 Gy/min. Un-anesthetized mice were loosely restrained in a well ventilated 15×15×2 cm Lucite box during WBI.
Viable jejunal crypts were quantified following a single dose of 12 Gy WBI+/− a single oral dose of WR-2721 given at 15 min or 30 min prior to radiation using the microcolony assay. Mice were euthanized 3 days and 14 hours after receiving WBI, and segments of jejunum and duodenum were resected and fixed in 10% neutral buffered formalin. Tissue was then embedded in paraffin, and four transverse slices of jejunum and duodenum were stained with hematoxylin and eosin per mouse. The number of regenerating crypts per transverse section was scored microscopically and averaged over the 4 sections per animal for each tissue type. All slides were scored by a single observer blinded to treatment group. […]

A short description of data set [2]: Tolerability: body weight and food consumption as a model of nausea. Type of data set: in vivo, C57BL/6JLaw mice. As to the method:
as §1
Severe nausea is a common and worrisome side effect of systemic WR-2721, and the concern that oral administration of the drug might exacerbate this side effect was examined. […] Thus, body weight and food consumption was closely monitored as a model of nausea in mice. Based on the results of the microcolony assay (FIG. 1), 500 mg/kg were used as the dose for toxicity testing. Mice were treated daily for 5 consecutive days with vehicle or WR-2721 administered IP or Per os (PO), and body weight and food consumption were monitored daily (FIGS. 2A and 2B, respectively). There was only one vehicle control group that was subjected to both gavage and intraperitoneal injections to more stringently control for the stress of drug administration from either IP or PO route. Despite this intensive intervention, the vehicle control animals maintained their initial bodyweight and food consumption throughout the study (FIGS. 2A and 2B).

Data set [3] relates to C57BL/6 mice given lethal fractionated radiation. The data set can be described thus: Survival study after fractionated SBRT to the upper abdomen. It counts as in vivo, C57BL/6JLaw mice. Particulars: oral 500 mg/kg 25 min prior to each of 5 daily fractions of 12.5 Gy, 10 mm field; all vehicle controls died in fewer than 10 days. As to the method: (§2) For survival studies, SBRT was given for 5 consecutive days 25 min after administration of vehicle or WR-2721 using the XRAD 225Cx small animal irradiator (Precision X-Ray; North Branford, Conn.) fitted with a conformal collimator to produce a circular 10 mm diameter radiation field. Mice were anesthetized with isoflurane gas for CT imaging and irradiation. Each mouse was imaged using the XRAD 225Cx cone beam CT prior to irradiation in order to align the radiation field so that the cranial edge of the field was located 5 mm below the diaphragm at the isocenter of the mouse. This field exposed the pancreas, duodenum, jejunum and liver to radiation. Radiation was administered anterior-posterior-posterio-anterior (AP-PA).
(§3) Mice were treated with WR-2721 or vehicle by intraperitoneal (IP) injection or oral gavage followed by SBRT and monitored on a daily basis. […] Time to euthanasia and percent survival were assessed.
It was hypothesized that the maximal benefit of radioprotection would likely occur between 12 and 13 Gy at 12.5 Gy×5 fractions (62.5 Gy; D2Eq=117.2 Gy). […] Remarkably, 100% of mice that received oral WR-2721 lived beyond 30 days, while all vehicle controls died in fewer than 10 days FIG. 3D, log rank p=0.0035).

Data set [4] deals with KPC mice with spontaneous pancreatic cancer. The data set can be described thus: Survival of tumor-bearing KPC mice after SBRT. It counts as in vivo, Kras LSL/+; Trp53 FL/+; Ptf1a Cre/+ (KPC) mice. Particulars: SBRT 12.5 Gy x 5 + oral WR-2721 25 min prior to each fraction; VEH and SBRT+VEH 15 days. Here is the method:
as §2, §3
Further confirmation is illustrated in FIG. 6. KPC Mice were enrolled onto the study shortly after diagnosis and were treated to vehicle alone, SBRT with vehicle or SBRT with oral WR-2721. The SBRT field was 10 mm given AP/PA to the tumor and the dose was 12.5 Gy per day for 5 consecutive days for a total dose of 62.5 Gy (EQD2=117.2 Gy; α/β10=140.6). The tumors were identified by micro CT and ultrasound on a daily basis without fiducials. […]

The conditions of data set [5]: mouse, in vivo, 25 min. Here is the method:
Next, the specificity of WR-1065 enrichment in intestines was determined in a genetically engineered mouse model. Kras^LSL/+; Trp53^FL/+; Ptfla^Cre/+ (KPC) mice that develop spontaneous pancreatic cancer were bred, and then backcrossed to a C57BL/6 background over 10 generations to eliminate the confounding issue of genetic variance from […] mice. These autochthonous tumors are thought to recapitulate the desmoplasia observed in human tumors that may make these tumors more aggressive. To be an effective an effective clinical radioprotectant, WR-1065 should not accumulate in tumors. Thus, plasma, liver, duodenum, jejunum and pancreatic tumors were collected 25 min after oral administration of 500 mg/kg (HED=41 mg/kg), or IP administration of 250 mg/kg WR-2721 (HED=20 mg/kg) to determine the concentrations of the WR-1065 (see schema in FIG. 4D).

The conditions of data set [6]: given intravenously; cited from earlier work.
A short description of data set [7]: LC/MS-MS analysis of WR-1065 plasma and tissue concentrations, C57BL/6 mice. Particulars: WR-2721 500 mg/kg oral, 25 min.
Experimental: Mice were treated with either 500 mg/kg of WR-2721 by oral gavage, or 250 mg/kg by IP injection. After 17 min had elapsed, the mice were anesthetized with isoflurane gas (3% isoflurane, oxygen flow rate of 2 L/min). After 8 min of anesthesia, whole blood and tissues were collected. The total amount of time between treatment and tissue collection was 25 min.
While under isoflurane anesthesia, the whole blood sample was collected via cardiac puncture and was immediately transferred to a BD Microtainer® blood collection tube containing K2-EDTA (Becton Dickinson; Franklin Lakes, N.J.). The K2-EDTA whole blood was then processed to plasma by centrifugation at 3,000 g for 4 min. After processing, a volume of the plasma supernatant (typically 200 μL) was removed and immediately transferred to a fresh 1.4 mL Matrix polypropylene (PP) tube (Thermo Fisher Scientific; Waltham, Mass.) containing a 50 μL aliquot of 10% trichloroacetic acid (TCA). After vortexing, the TCA-treated plasma samples were stored on ice for transport from the vivarium to the laboratory for further processing. The TCA-treated plasma samples were then centrifuged at 17,000 g for 5 min, and the supernatant was transferred to a fresh 1.4 mL Matrix tube, and the samples were either extracted and analyzed immediately or capped for −80° C. storage until analysis. […]
A short description of data set [8]: Methylene blue gut assay (GI transit time). It counts as in vivo, C57BL/6 mice. As to the method:
In order to determine the rate at which oral solutions such as WR-2721 traverse the digestive tract of 8-week old C57BL/6 mice following oral gavage, a 1% (w/v) solution of methylene blue in PBS was gavaged in a total volume of 0.1 ml. Mice were then euthanized at 5, 10, 15, 25 and 30 min after the dye administration and the progress of the methylene blue stain through the intestines was examined. Mice were anesthetized with isoflurane 8 min prior to euthanasia following the same procedure used prior to irradiation (8 min at 3% isoflurane and oxygen flow rate of 2 L/min) to account for any potential changes it might have on GI transit time. Methylene blue dye progress was examined in situ for comparison with the location of our standard radiation field and then the intestine was excised so that distance traveled could be determined.

Where [9] appears, read: oral 500 mg/kg daily for 5 consecutive days.

Regarding `NCCCNCCSP(=O)(O)O` [WR-2721, S-2-(3-aminopropylamino)ethyl dihydrogen phosphorothioate], the “dose at which radiation protection was maximized” value in data set [1] amounted to 500 mg/kg. In data set [2] (intraperitoneal 500 mg/kg daily), the “day by which euthanasia was required” value was not above 4 days. The “body weight and food consumption” value in data set [2] (intraperitoneal 500 mg/kg daily, 5 consecutive days planned) is “dramatic decrease in food consumption and body weight”. Besides, in data set [2] (setting [9]), the “body weight and food consumption” value was “modest initial decrease in body weight and food consumption”; the “time to complete recovery of body weight after stopping treatment” value is listed as not above 2 days. In data set [3], the “mice that lived beyond 30 days” value is on record as 100%. The median survival in data set [4] came to 40 days. Besides, in data set [5] (ip, 250 mg/kg), the “WR-1065 concentration in duodenum” value turned out to be 236.2±8.6 pmol WR-1065/mg tissue, the “WR-1065 concentration in jejunum” value is given as 275.5±5.0 pmol WR-1065/mg tissue, the “WR-1065 concentration in liver” value was determined as 420±69.8 pmol WR-1065/mg tissue and the “WR-1065 concentration in pancreatic tumors” value is listed as 248±30.2 pmol WR-1065/mg tissue. In addition, in data set [5] (po, 500 mg/kg), the “WR-1065 concentration in duodenum” value came to 200.6±23.3 pmol WR-1065/mg tissue, the “WR-1065 concentration in jejunum” value is on record as 757.7±26.8 pmol WR-1065/mg tissue, the “WR-1065 concentration in liver” value is recorded as 59.9±26.8 pmol WR-1065/mg tissue and the “WR-1065 concentration in tumor” value turned out to be 24.5±1.9 pmol WR-1065/mg tissue. Further, in data set [5] (po, 500 mg/kg), the “enrichment of the drug in the intestines compared to tumor” value is listed as 10-40 fold. Also, in data set [6], the side effects entry was “severe nausea and hypotension”. For the same compound, the “enhancement of WR-1065 within duodenum and jejunum compared to liver” value in data set [7] is “six- to twelve-fold”.

For `CN(C)c1ccc2nc3ccc(=[N+](C)C)cc-3sc2c1` [Methylene blue, methylene blue], in data set [8] (C57BL/6, mouse, in vivo, po), the “time at which dye was in the jejunum” value was in the range of 15 to 30 min and the “time to reach the duodenum” value is recorded as not above 10 min. The “dye front within 30 min” value in data set [8] (oral gavage, 1% (w/v) in PBS, 0.1 ml) is “had not reached the cecum or large intestine”.
